Experimental data: US6506607B1, “Methods and compositions for the identification and assessment of prostate cancer therapies and the diagnosis of prostate cancer” (Millennium Pharmaceuticals, Inc., priority 1997, dated 2003)

Tested on: LNCaP cells
Procedure: After 25 hours of incubation in testosterone-containing medium, the cells were detached from the flasks with trypsin and pelleted. Five T162 flasks of pretreated cells were used as a control. Untreated cells were collected in the same manner.
Total RNA was prepared from the cell pellets using the RNeasy protocol (Qiagen).
The PCR products representing partial cDNAs of putatively differentially expressed mRNAs were subcloned into pCR2.1 (InVitrogen) and transformed into INValphaF^1 cells.
The differentially expressed genes were then identified by screening on a Gene Expression Micro-Array™ (Synteni, Inc.; Fremont, Calif.).
In some cases only a partial sequence is presented in the corresponding figure. The various methods described herein can employ complete sequences or fragments thereof.

C[C@]12CC[C@H]3[C@@H](CCC4=CC(=O)CC[C@@]43C)[C@@H]1CC[C@@H]2O [testosterone]
Fold Increase In mRNA: 54 kDa progesterone receptor-associated immunophilin FKBP54: 2.5
Fold Increase In mRNA: Ankyrin G (ANK-3) (U13616): 2.7
Fold Increase In mRNA: Aryl hydrocarbon receptor nuclear translocator: 4.6
Fold Increase In mRNA: BM28 mRNA/DNA replication licensing factor (huMCM2): 2.4
Fold Increase In mRNA: Cell division protein kinase 6: 3.1
Fold Increase In mRNA: Cytochrome b5: 3.3
Fold Increase In mRNA: ESTs {23605}: 2.5
Fold Increase In mRNA: ESTs {26259}: 5
Fold Increase In mRNA: ESTs {32161}: 2.5
Fold Increase In mRNA: ESTs {41700}: 4
Fold Increase In mRNA: ESTs {46287}: 3
Fold Increase In mRNA: ESTs {48537}: 4.5
Fold Increase In mRNA: ESTs {51591}: 2.3
Fold Increase In mRNA: ESTs {52371}: 2.6
Fold Increase In mRNA: ESTs {128055}: 2.8
Fold Increase In mRNA: ESTs {128990}: 5
Fold Increase In mRNA: ESTs {131591}: 2.3
Fold Increase In mRNA: ESTs {135326}: 3.4
Fold Increase In mRNA: ESTs {141115}: 2.3
Fold Increase In mRNA: ESTs {151339}: 2.4
Fold Increase In mRNA: ESTs {174787}: 2.4
Fold Increase In mRNA: ESTs {177150}: 3.1
Fold Increase In mRNA: ESTs {180082}: 2.1
Fold Increase In mRNA: ESTs {195079}: 4.3
Fold Increase In mRNA: ESTs {221118}: 4.4
Fold Increase In mRNA: ESTs {230447}: 2.4
Fold Increase In mRNA: ESTs {242643}: 4.1
Fold Increase In mRNA: ESTs {249347}: 3.5
Fold Increase In mRNA: ESTs {264293}: 3
Fold Increase In mRNA: ESTs {297463}: 2.3
Fold Increase In mRNA: ESTs {301487}: 3.8
Fold Increase In mRNA: ESTs {344156}: 5.9
Fold Increase In mRNA: ESTs {364477}: 2.5
Fold Increase In mRNA: ESTs {364618}: 2.7
Fold Increase In mRNA: ESTs {375900}: 3.1
Fold Increase In mRNA: ESTs {415795}: 2.8
Fold Increase In mRNA: ESTs {429349}: 3
Fold Increase In mRNA: ESTs {469725}: 3.7
Fold Increase In mRNA: ESTs {471083}: 2.6
Fold Increase In mRNA: ESTs {488092}: 2.5
Fold Increase In mRNA: EXT1 = putative tumor suppressor/hereditary mult. exostoses candidate gene: 2.4
Fold Increase In mRNA: Eukaryotic initiation factor 1A: 2.4
Fold Increase In mRNA: Fibronectin (S00848, transformation-associated human fragment): 2.8
Fold Increase In mRNA: Gelsolin precursor: 2.8
Fold Increase In mRNA: Guanine nucleotide exchange factor MSS4 (U74324) (−76 nucleotide): 2.7
Fold Increase In mRNA: HEK2 protein tyrosine kinase receptor: 2.6
Fold Increase In mRNA: High mobility group protein HMG1 (X12597): 2.6
Fold Increase In mRNA: Histone H2AZ: 2.5
Fold Increase In mRNA: Immunoglobulin rearranged H-chain V-region (C-D-J Hg): 3.6
Fold Increase In mRNA: KIAA0018 gene (D13643): 3.3
Fold Increase In mRNA: Kinesin-related protein: 4.8
Fold Increase In mRNA: L-lactate dehydrogenase M chain (X02152, M17516): 3
Fold Increase In mRNA: Monoamine oxidase: 5.5
Fold Increase In mRNA: Myeloblast KIAA0130 gene (D50920): 3.3
Fold Increase In mRNA: Neprilysin: 2.8
Fold Increase In mRNA: Phospholipase A2 (M22430): 2.7
Fold Increase In mRNA: Pyruvate kinase (M26252) = human TCB gene encoding cytosolic thyroid hormone-binding protein: 2.3
Fold Increase In mRNA: Ras-like GTP-binding protein RAN: 2.6
Fold Increase In mRNA: S-adenosylmethionine decarboxylase: 2.3
Fold Increase In mRNA: S-adenosylmethionine decarboxylase proenzyme (M21154): 2.5
Fold Increase In mRNA: STS (WI 12919): 7.7
Fold Increase In mRNA: STS (WI-8530): 5
Fold Increase In mRNA: Simian T-cell lymphotropic virus type I DNA for tax/rex region: 2.3
Fold Increase In mRNA: Spectrin alpha chain: 3.5
Fold Increase In mRNA: Thyroid receptor interactor (TRIP7) (L40357) (−92 nucleotide): 2.4
Fold Increase In mRNA: Tubulin beta 1 chain: 2.8
Fold Increase In mRNA: UDP glucuronosyltransferase precursor (UGT2B15): 2.8
Fold Increase In mRNA: UDP-glucuronosyltransferase 2B7 precursor: 3.9
Fold Increase In mRNA: Vacuolar ATP synthase subunit AC39; or bovine (P17694) NADH-ubiquinone oxidoreductase 49 kD subunit: 3.1
Fold Increase In mRNA: Yeast guanine nucleotide-binding protein beta subunit-like protein: 2.4
Fold Increase In mRNA: p0071 protein (X81889): 2.4
